According to US20250025493A1, “GLUCOHEXAOSE AND PREPARATION METHOD THEREFOR AND APPLICATION THEREOF, AND HAIR REGENERATION PREPARATION” (UNIVERSITY OF MACAU, priority 2021, published 2025):

Experiments:
[1] = system: hair follicles in back unhairing area, androgenetic alopecia (AGA) mouse model; assay: Animal experiment, microneedle administration, mouse model of androgenetic alopecia (AGA); format: in vivo, C57BL/6J mice; settings: microneedle administration on D-0, D-7, D-14, FIG. 5
Text: (§1) The method is as follows: healthy male 7-week-old C57BL/6J mice were subjected to back unhairing treatment, wherein the hair on the back area was completely removed using an unhairing cream (Veet); starting from D-0, testosterone was topically applied to the back unhairing area of the mice every day to simulate androgenetic alopecia (AGA) for modeling, and the hair growth of the mice was photographed for recording; the gulcohexaose was microneedle administered to the back unhairing area of the mice every seven days (D-0, D-7, D-14), designated as OG6 group; a blank group (no applying) was set up, designated as a control group; and the hair growth on the back of the mice was observed on day 21.

[2] = system: mouse bone marrow-derived macrophages (mBMDM); assay: Induction and activation experiment on macrophages, eukaryotic mRNA sequencing of released cytokines; format: cell-based, mouse (C57BL/6J); settings: 50 ug/ml, 24 h co-incubation, vs PBS group, FIG. 1
Procedure: The gulcohexaose sample prepared in example 1 above was used to perform an induction and activation experiment on mouse bone marrow-derived macrophages (mBMDM, primary cells extracted from C57BL/6J mice by laboratory methods):
Mouse bone marrow-derived monocytes (5×10^6 cells/10 cm petri dish) were seeded in 10 cm petri dishes and cultured using L929 cell culture supernatant obtained after 7 days of culture+RPMI-1640 medium+10% fetal bovine serum+1% penicillin-streptomycin in a 37° C., 5% CO2 incubator. After cell adherence, the cells were co-incubated with 50 ug/ml gulcohexaose for 24 h, designated as OG6 group, while a blank group (an experimental group to which the gulcohexaose was not added and to which an equal volume (10 μl) of PBS buffer (mainly consisted of Na2HPO4, KH2PO4, NaCl and KCl) was added) was set up, designated as PBS group. After 24 h of co-incubation, the total RNA was extracted from the sample using TRIzol (Invitrogen), eukaryotic mRNA sequencing experiment analysis and bioinformatics analysis were performed, and the difference between the expression level of cytokines released by the mouse bone marrow-derived macrophages stimulated by the gulcohexaose and the expression level of cytokines released in the blank group was compared. This experiment was repeated twice.

[3] = system: hair follicles in back unhairing area, androgenetic alopecia (AGA) mouse model; assay: Animal experiment, direct application, mouse model of androgenetic alopecia (AGA); format: in vivo, C57BL/6J mice; settings: direct topical application on D-0, D-7, D-14, FIG. 3
Text: The gulcohexaose sample prepared in example 1 was investigated for the biological effect in promoting hair follicle regeneration.
The method is as follows: healthy male 7-week-old C57BL/6J mice were subjected
as §1, with “to” for “The method is as follows: healthy male 7-week-old C57BL/6J mice were subjected to”, “establish a mouse model of” for “simulate”, “(AGA),” for “(AGA) for modeling,”, “directly and topically applied” for “microneedle administered”

[4] = system: Ccl5 gene in mouse bone marrow-derived macrophages (mBMDM); assay: Verification experiment, real-time fluorescence quantitative PCR of Ccl5 gene expression in macrophages; format: cell-based, mouse (C57BL/6J); settings: 50 ug/ml, FIG. 2
Text: To verify the experimental results of eukaryotic mRNA sequencing analysis, a real-time fluorescence quantitative PCR experiment was used to determine the expression level of Ccl5 gene in macrophages stimulated by the gulcohexaose. The gulcohexaose prepared in example I was used to perform an induction and activation experiment on mouse bone marrow-derived macrophages (mBMDM, primary cells extracted from C57BL/6J mice by laboratory methods): • mouse bone marrow-derived monocytes (5×10^6 cells/10 cm petri dish) were seeded in 10 cm petri dishes and cultured using L929 cell culture supernatant obtained after 7 days of culture+RPMI-1640 medium+10% fetal bovine serum+1% penicillin-streptomycin in a 37° C., 5% CO2 incubator. […] After co-incubation for different time periods, the total RNA was extracted from the samples respectively, and the expression levels of Ccl5 cytokine in mouse bone marrow-derived macrophages before and after the stimulation by the gulcohexaose were detected by real-time quantitative PCR.

[5] = system: hair follicles in back unhairing area, androgenetic alopecia (AGA) mouse model; assay: Animal experiment, subcutaneous injection, mouse model of androgenetic alopecia (AGA); format: in vivo, C57BL/6J mice; settings: subcutaneous injection on D-0, D-7, D-14, FIG. 4
Text: as §1, with “(AGA),” for “(AGA) for modeling,”, “subcutaneously injected” for “microneedle administered”

[6] = system: androgenetic alopecia in mouse models; assay: Treatment of androgenetic alopecia in mouse models, summary over all administration routes; format: in vivo, mice; settings: direct skin application, subcutaneous injection or microneedle release administration
Text: The glucohexaose used in the present disclosure can be used to treat androgenetic alopecia in mouse models via any one of direct skin application administration, subcutaneous injection administration and microneedle release administration, and the hair formation is observed.

## Man-Man-Man-Man-Glc-Glc [gulcohexaose]
[1]; observed day 21
  hair growth at treated part compared with blank group: obviously denser than that on the mice in the blank group
[1]; testosterone-induced AGA mice
  hair follicle stage in back treatment area compared with blank group: the first to enter a growth period from a resting period and are the first to grow hair
[2]
  expression level of cytokines released by macrophages versus blank group (mRNA sequencing): can specifically activate macrophages to release a cytokine network mainly comprising CCL5 chemotactic factors
[3]; day 21
  hair growth on day 21 compared with blank group: obviously superior to that on the mice in the blank group
[3]; testosterone-induced AGA mice
  hair follicle stage in back treatment area compared with blank group: have entered a growth period from a resting period and grew hair
[4]; 1 h, 12 h and 24 h, vs PBS group
  expression level of Ccl5 cytokine in macrophages (real-time quantitative PCR): rapidly upregulate the expression level of Ccl5 cytokine
[4]; 24 h
  expression level of Ccl5 cytokine in macrophages after 24 hours of stimulation: high expression level of Ccl5 cytokine in macrophages maintained
[5]; day 21
  hair growth on day 21 compared with blank group: obviously superior to that on the mice in the blank group
[5]; testosterone-induced AGA mice
  hair follicle stage in back treatment area compared with blank group: have entered a growth period from a resting period and grew hair
[6]
  adverse reactions: without any serious adverse reactions
  growth of hair on the back of mice: can effectively promote the growth of hair on the back of mice
